{"source": "PubChem BioAssay (NCI)", "experiment_in_all_cases": "NCI tumour cell line growth inhibition, 48 h", "key": {"786-0 renal": {"tested_on": "786-0 renal"}, "A498 renal": {"tested_on": "A498 renal"}, "A549 NSCLC": {"tested_on": "A549 NSCLC"}, "ACHN renal": {"tested_on": "ACHN renal"}, "CAKI-1 renal": {"tested_on": "CAKI-1 renal"}, "CCRF-CEM leukemia": {"tested_on": "CCRF-CEM leukemia"}, "COLO 205 colon": {"tested_on": "COLO 205 colon"}, "DLD-1 colon": {"tested_on": "DLD-1 colon"}, "DMS 114 small cell lung": {"tested_on": "DMS 114 small cell lung"}, "DMS 273 small cell lung": {"tested_on": "DMS 273 small cell lung"}, "EKVX NSCLC": {"tested_on": "EKVX NSCLC"}, "HCC-2998 colon": {"tested_on": "HCC-2998 colon"}, "HCT-116 colon": {"tested_on": "HCT-116 colon"}, "HCT-15 colon": {"tested_on": "HCT-15 colon"}, "HL-60(TB) leukemia": {"tested_on": "HL-60(TB) leukemia"}, "HOP-18 NSCLC": {"tested_on": "HOP-18 NSCLC"}, "HOP-62 NSCLC": {"tested_on": "HOP-62 NSCLC"}, "HOP-92 NSCLC": {"tested_on": "HOP-92 NSCLC"}, "HT29 colon": {"tested_on": "HT29 colon"}, "IGROV1 ovarian": {"tested_on": "IGROV1 ovarian"}, "K-562 leukemia": {"tested_on": "K-562 leukemia"}, "KM12 colon": {"tested_on": "KM12 colon"}, "KM20L2 colon": {"tested_on": "KM20L2 colon"}, "LOX IMVI melanoma": {"tested_on": "LOX IMVI melanoma"}, "LXFL 529 NSCLC": {"tested_on": "LXFL 529 NSCLC"}, "M14 melanoma": {"tested_on": "M14 melanoma"}, "M19-MEL melanoma": {"tested_on": "M19-MEL melanoma"}, "MALME-3M melanoma": {"tested_on": "MALME-3M melanoma"}, "MCF7 breast": {"tested_on": "MCF7 breast"}, "MOLT-4 leukemia": {"tested_on": "MOLT-4 leukemia"}, "NCI-H226 lung": {"tested_on": "NCI-H226 lung"}, "NCI-H23 lung": {"tested_on": "NCI-H23 lung"}, "NCI-H460 lung": {"tested_on": "NCI-H460 lung"}, "NCI-H522 lung": {"tested_on": "NCI-H522 lung"}, "NCI/ADR-RES ovarian": {"tested_on": "NCI/ADR-RES ovarian"}, "OVCAR-3 ovarian": {"tested_on": "OVCAR-3 ovarian"}, "OVCAR-4 ovarian": {"tested_on": "OVCAR-4 ovarian"}, "OVCAR-5 ovarian": {"tested_on": "OVCAR-5 ovarian"}, "OVCAR-8 ovarian": {"tested_on": "OVCAR-8 ovarian"}, "P388 leukemia": {"tested_on": "P388 leukemia"}, "P388/ADR leukemia": {"tested_on": "P388/ADR leukemia"}, "RPMI-8226 leukemia": {"tested_on": "RPMI-8226 leukemia"}, "RXF 393 renal": {"tested_on": "RXF 393 renal"}, "RXF-631 renal": {"tested_on": "RXF-631 renal"}, "SF-268 CNS": {"tested_on": "SF-268 CNS"}, "SF-295 CNS": {"tested_on": "SF-295 CNS"}, "SF-539 CNS": {"tested_on": "SF-539 CNS"}, "SK-MEL-2 melanoma": {"tested_on": "SK-MEL-2 melanoma"}, "SK-MEL-28 melanoma": {"tested_on": "SK-MEL-28 melanoma"}, "SK-MEL-5 melanoma": {"tested_on": "SK-MEL-5 melanoma"}, "SK-OV-3 ovarian": {"tested_on": "SK-OV-3 ovarian"}, "SN12C renal": {"tested_on": "SN12C renal"}, "SN12K1 renal": {"tested_on": "SN12K1 renal"}, "SNB-19 CNS": {"tested_on": "SNB-19 CNS"}, "SNB-75 CNS": {"tested_on": "SNB-75 CNS"}, "SNB-78 CNS": {"tested_on": "SNB-78 CNS"}, "SR leukemia": {"tested_on": "SR leukemia"}, "SW-620 colon": {"tested_on": "SW-620 colon"}, "TK-10 renal": {"tested_on": "TK-10 renal"}, "U251 CNS": {"tested_on": "U251 CNS"}, "UACC-257 melanoma": {"tested_on": "UACC-257 melanoma"}, "UACC-62 melanoma": {"tested_on": "UACC-62 melanoma"}, "UO-31 renal": {"tested_on": "UO-31 renal"}, "XF 498 CNS": {"tested_on": "XF 498 CNS"}}, "note": "“And” between values parts separate entries of the source, which are not always exact repeats. Equal values may be shown once.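 Results reflect a 48-hour exposure of cells in 96-well plates to compound at five concentrations. At the TGI there is no net growth.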"}
{"compound": "O=NN(CCCl)C(=O)NC1CCC(C(=O)O)CC1", "note": "(centres undefined)", "values": [{"measurement": "TGI", "setting": "786-0 renal", "value": "> 100", "unit": "µM"}, {"measurement": "TGI", "setting": "A498 renal", "value": "> 100", "unit": "µM"}, {"measurement": "TGI", "setting": "A549 NSCLC", "value": "> 100", "unit": "µM"}, {"measurement": "TGI", "setting": "ACHN renal", "value": "> 100", "unit": "µM"}, {"measurement": "TGI", "setting": "CAKI-1 renal", "value": "> 100", "unit": "µM"}, {"measurement": "TGI", "setting": "CCRF-CEM leukemia", "value": "> 100", "unit": "µM"}, {"measurement": "TGI", "setting": "COLO 205 colon", "value": "> 100", "unit": "µM"}, {"measurement": "TGI", "setting": "DLD-1 colon", "value": "> 100", "unit": "µM"}, {"measurement": "TGI", "setting": "DMS 114 small cell lung", "value": "> 100 µM and 49 µM"}, {"measurement": "TGI", "setting": "DMS 273 small cell lung", "value": "> 100", "unit": "µM"}, {"measurement": "TGI", "setting": "EKVX NSCLC", "value": "> 100", "unit": "µM"}, {"measurement": "TGI", "setting": "HCC-2998 colon", "value": "> 100", "unit": "µM"}, {"measurement": "TGI", "setting": "HCT-116 colon", "value": "> 100", "unit": "µM"}, {"measurement": "TGI", "setting": "HCT-15 colon", "value": "> 100", "unit": "µM"}, {"measurement": "TGI", "setting": "HL-60(TB) leukemia", "value": "> 100", "unit": "µM"}, {"measurement": "TGI", "setting": "HOP-18 NSCLC", "value": "> 100", "unit": "µM"}, {"measurement": "TGI", "setting": "HOP-62 NSCLC", "value": "> 100", "unit": "µM"}, {"measurement": "TGI", "setting": "HOP-92 NSCLC", "value": "> 100", "unit": "µM"}, {"measurement": "TGI", "setting": "HT29 colon", "value": "> 100", "unit": "µM"}, {"measurement": "TGI", "setting": "IGROV1 ovarian", "value": "> 100", "unit": "µM"}, {"measurement": "TGI", "setting": "K-562 leukemia", "value": "> 100", "unit": "µM"}, {"measurement": "TGI", "setting": "KM12 colon", "value": "> 100", "unit": "µM"}, {"measurement": "TGI", "setting": "KM20L2 colon", "value": "> 100", "unit": "µM"}, {"measurement": "TGI", "setting": "LOX IMVI melanoma", "value": "> 100", "unit": "µM"}, {"measurement": "TGI", "setting": "LXFL 529 NSCLC", "value": "> 100", "unit": "µM"}, {"measurement": "TGI", "setting": "M14 melanoma", "value": "> 100", "unit": "µM"}, {"measurement": "TGI", "setting": "M19-MEL melanoma", "value": "> 100", "unit": "µM"}, {"measurement": "TGI", "setting": "MALME-3M melanoma", "value": "> 100", "unit": "µM"}, {"measurement": "TGI", "setting": "MCF7 breast", "value": "> 100", "unit": "µM"}, {"measurement": "TGI", "setting": "MOLT-4 leukemia", "value": "> 80.9", "unit": "µM"}, {"measurement": "TGI", "setting": "NCI-H226 lung", "value": "> 100", "unit": "µM"}, {"measurement": "TGI", "setting": "NCI-H23 lung", "value": "> 100", "unit": "µM"}, {"measurement": "TGI", "setting": "NCI-H460 lung", "value": "> 100", "unit": "µM"}, {"measurement": "TGI", "setting": "NCI-H522 lung", "value": "75.1 µM and > 100 µM"}, {"measurement": "TGI", "setting": "NCI/ADR-RES ovarian", "value": "> 100", "unit": "µM"}, {"measurement": "TGI", "setting": "OVCAR-3 ovarian", "value": "> 100", "unit": "µM"}, {"measurement": "TGI", "setting": "OVCAR-4 ovarian", "value": "> 100", "unit": "µM"}, {"measurement": "TGI", "setting": "OVCAR-5 ovarian", "value": "> 100", "unit": "µM"}, {"measurement": "TGI", "setting": "OVCAR-8 ovarian", "value": "> 100", "unit": "µM"}, {"measurement": "TGI", "setting": "P388 leukemia", "value": "16.2 µM and 19.2 µM"}, {"measurement": "TGI", "setting": "P388/ADR leukemia", "value": "17.5 µM and 33.8 µM"}, {"measurement": "TGI", "setting": "RPMI-8226 leukemia", "value": "> 100", "unit": "µM"}, {"measurement": "TGI", "setting": "RXF 393 renal", "value": "> 100", "unit": "µM"}, {"measurement": "TGI", "setting": "RXF-631 renal", "value": "> 100", "unit": "µM"}, {"measurement": "TGI", "setting": "SF-268 CNS", "value": "> 100", "unit": "µM"}, {"measurement": "TGI", "setting": "SF-295 CNS", "value": "> 100", "unit": "µM"}, {"measurement": "TGI", "setting": "SF-539 CNS", "value": "> 100", "unit": "µM"}, {"measurement": "TGI", "setting": "SK-MEL-2 melanoma", "value": "> 100", "unit": "µM"}, {"measurement": "TGI", "setting": "SK-MEL-28 melanoma", "value": "> 100", "unit": "µM"}, {"measurement": "TGI", "setting": "SK-MEL-5 melanoma", "value": "> 100", "unit": "µM"}, {"measurement": "TGI", "setting": "SK-OV-3 ovarian", "value": "> 100", "unit": "µM"}, {"measurement": "TGI", "setting": "SN12C renal", "value": "> 100", "unit": "µM"}, {"measurement": "TGI", "setting": "SN12K1 renal", "value": "> 100", "unit": "µM"}, {"measurement": "TGI", "setting": "SNB-19 CNS", "value": "> 100", "unit": "µM"}, {"measurement": "TGI", "setting": "SNB-75 CNS", "value": "> 100", "unit": "µM"}, {"measurement": "TGI", "setting": "SNB-78 CNS", "value": "> 100", "unit": "µM"}, {"measurement": "TGI", "setting": "SR leukemia", "value": "> 100", "unit": "µM"}, {"measurement": "TGI", "setting": "SW-620 colon", "value": "> 100", "unit": "µM"}, {"measurement": "TGI", "setting": "TK-10 renal", "value": "> 100", "unit": "µM"}, {"measurement": "TGI", "setting": "U251 CNS", "value": "> 100", "unit": "µM"}, {"measurement": "TGI", "setting": "UACC-257 melanoma", "value": "> 100", "unit": "µM"}, {"measurement": "TGI", "setting": "UACC-62 melanoma", "value": "> 100", "unit": "µM"}, {"measurement": "TGI", "setting": "UO-31 renal", "value": "> 100", "unit": "µM"}, {"measurement": "TGI", "setting": "XF 498 CNS", "value": "> 100", "unit": "µM"}]}
